The results in this text go back to patent US20180116993A1, “MODULATORS OF FARNESOID X RECEPTOR AND METHODS FOR THE USE THEREOF” (XIAMEN UNIVERSITY, priority 2015, published 2018).

Like-named read-outs stand apart in the source and are kept apart here. Marks after values point to notes of the source that are not given here. Where only a bound is given, the exact number is not on record here.

For assay [1], the target named is T1, FXR ligand binding domain (LBD) (Homo sapiens, UniProt Q96RI1).
T1 construct: made in house
T1 sequence (Q96RI1 262-486 limits assumed): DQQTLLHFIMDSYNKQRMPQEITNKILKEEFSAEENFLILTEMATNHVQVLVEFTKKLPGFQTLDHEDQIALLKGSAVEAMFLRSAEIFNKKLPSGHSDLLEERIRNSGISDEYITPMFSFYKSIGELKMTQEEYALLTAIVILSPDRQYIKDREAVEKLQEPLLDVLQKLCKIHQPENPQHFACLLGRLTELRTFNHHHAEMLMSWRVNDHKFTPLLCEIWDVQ
Briefly: AlphaScreen assay: FXR LBD recruitment of coregulator peptide motifs (SRC2-3, SRC1-2). The assay is classed as biochemical. Conditions: Table 2. The protocol: In search of novel ligands for FXR, we used FXR ligand binding domain (LBD) as a bait to screen chemical libraries based on AlphaScreen biochemical assay, which determines the efficacy of small molecules in influencing binding affinity of FXR with coregulator peptides (see e.g., Jin et al., (2013) Nature communications 4, 1937).
The binding of the cofactor peptide motifs to FXR ligand binding domain (LBD) in response to ligands was determined by AlphaScreen assays using a hexahistidine detection kit from Perkins-Elmer. The FXR LBD protein was purified as described previously (see e.g., Jin et al., (2013) Nature communications 4, 1937). The experiments were conducted with approximately 20-40 nM receptor LBD and 20 nM biotinylated cofactor peptides in the presence of 5 μg/ml donor and acceptor beads in a buffer containing 50 mM MOPS, 50 mM NaF, 0.05 mM CHAPS, and 0.1 mg/ml bovine serum albumin, all adjusted to a pH of 7.4.

For another assay, the target named is T2, full-length FXR (Homo sapiens, UniProt Q96RI1).
T2 construct: The cells were co-transfected with plasmids encoding full-length FXR and the cognate luciferase reporter EcRE-Luc; expressed in transfected cells; host or cells: COS-7
T2 sequence (Q96RI1 1-486): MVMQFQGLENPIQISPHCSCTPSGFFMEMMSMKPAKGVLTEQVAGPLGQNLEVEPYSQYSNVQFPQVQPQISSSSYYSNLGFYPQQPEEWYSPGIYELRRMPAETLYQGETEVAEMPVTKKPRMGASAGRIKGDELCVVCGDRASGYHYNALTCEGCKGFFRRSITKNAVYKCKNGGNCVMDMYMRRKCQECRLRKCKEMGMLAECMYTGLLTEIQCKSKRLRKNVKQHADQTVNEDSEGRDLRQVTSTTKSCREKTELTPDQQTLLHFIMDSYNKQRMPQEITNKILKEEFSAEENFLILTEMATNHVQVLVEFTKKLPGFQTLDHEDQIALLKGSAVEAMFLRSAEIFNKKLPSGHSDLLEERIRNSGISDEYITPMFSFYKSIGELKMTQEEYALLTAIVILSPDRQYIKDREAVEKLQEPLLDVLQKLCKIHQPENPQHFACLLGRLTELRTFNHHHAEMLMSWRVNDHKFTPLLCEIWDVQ
Kind of assay: Cell-based FXR transactivation, EcRE luciferase reporter in COS-7 cells. To be noted: Table 2; for Cell-based FXR transactivation Fold changes by 5 μM compound: positive: induction, minus: repression; for EC50: EcRE luciferase reporter. Here is the method: COS-7 cells were cotransfected with plasmids encoding full length FXR.
For transient transfection assay, COS-7 cells were maintained in DMEM containing 10% fetal bovine serum and were transiently transfected using Lipofectamine 2000 (Invitrogen). Before 24 h of transfection, 24-well plates were plated. The cells were co-transfected with plasmids encoding full-length FXR and the cognate luciferase reporter EcRE-Luc. Ligands were added 5 hours after transfection. Cells were harvested 24 hours later for the luciferase assays according to the manufacturer's instructions (Dual-Luciferase® Reporter Assay System, Promega). Luciferase activities were normalized to renilla activity co-transfected as an internal control.

In assay [2] the test system is human colorectal adenocarcinoma HCT15 cells. Briefly: MTT cell viability assay, HCT15. The format is cell-based. Conditions: 48 h, read-out: Cell viability as a percentage of the cells treated with DMSO, HCT15; for viability at 20 µM: HCT-15, 20 uM; for viability at 40 µM: HCT-15, 40 uM. The source says:
(§1) The MTT assay is a colorimetric assay for assessing cell metabolic activity. It is widely used in high-throughput screening of antitumor drugs due to its high sensitivity and economical features. In this example, MTT was used to detect the inhibitory effects of compounds on various cancer cell lines. Cancer cells including human colorectal adenocarcinoma HCT15 cells, RA-resistant human colon cancer HCT116 cells, human cervical carcinoma Hela cells, human hepatoma HepG2 cells and human breast cancer MCF7 cells were cultured in DMEM medium containing 10% fetal bovine serum. 20 uM or 40 uM of compounds were administered to treat cells, cell viability is detected by MTT assay and expressed as a percentage of the cells treated with DMSO (Table 4).

The test system of assay [3] is RA-resistant human colon cancer HCT116 cells. Briefly: MTT cell viability assay, HCT116. The assay is classed as cell-based. Conditions: 48 h, read-out: Cell viability as a percentage of the cells treated with DMSO, HCT116; for viability at 20 µM: HCT-116, 20 uM; for viability at 40 µM: HCT-116, 40 uM.
Excerpt: as §1

In assay [4] the test system is human hepatoma HepG2 cells. Kind of assay: MTT cell viability assay, HepG2. The format is cell-based. To be noted: 48 h, read-out: Cell viability as a percentage of the cells treated with DMSO, HepG2.
Excerpt: as §1

The subject of assay [5] is human cervical carcinoma Hela cells. Kind of assay: MTT cell viability assay, Hela. The format is cell-based. To be noted: 48 h, read-out: Cell viability as a percentage of the cells treated with DMSO, Hela.
Excerpt: as §1

The subject of assay [6] is human breast cancer MCF7 cells. Kind of assay: MTT cell viability assay, MCF-7. The format is cell-based. To be noted: 48 h, read-out: Cell viability as a percentage of the cells treated with DMSO, MCF-7.
Excerpt: as §1

Assay [7] relates to db/db mice. Kind of assay: Serum/blood metabolic parameters in high-fat diet fed db/db mice. The format is in vivo, mouse. Conditions: 10 mg/kg, treat for 10 days, vehicle 527 ± 63. The source says: KK-Ay mice (KK/Upj-Ay/J) are animal models with moderate obese and diabetes with insulin resistance. KK-Ay mice develop hyperglycemia, hyperinsulinemia, glucose intolerance and obesity as well as fat accumulation in liver by eight weeks of age. Pancreatic islets are hypertrophied and the β-cells are degranulated. db/db mice (BKS.Cg-Dockr+/+ Lepr^db/Jnju) are animal models of type II diabetes. They have the phenotype of insulin resistance. These model mice were used to detect the functions of our compounds on metabolic diseases.
8-10 weeks age mice were maintained as example 4, and fed with high-fat diet (Research Diets, D12492). Mice were i.p. injected with compounds once daily for 7, 10, 11 or 14 days as indicated in each table. After the last compounds injection, mice were fasted for 6 hours with free access to water, and then sacrificed. Part of each liver was fixed in 4% paraformaldehyde for H&E staining, and other liver tissues were stored in liquid nitrogen for enzyme activity measurement and gene expression analysis by RT-PCR. The serums were collected to measure metabolic parameters, including serum glucose, insulin, cholesterol, free fatty acid (FFA) and triglyceride levels. Serum glucose was analyzed using glucose oxidase method (Applygen, Beijing, China). The blood glucose in Table 11 was measured with Berenger blood glucose test strips (B/BRAUN, German) from blood by cutting mice tail after the 6th injection and following fast for 16 hours. Serum cholesterol and FFA were analyzed using Cholesterol Assay Kit and FFA Assay Kit (Bioassay Systems, USA; Nanjing Jiancheng Bioengineering Institute, China; FFA ELISA, R&D, USA), respectively. Serum triglyceride was analyzed using Triglyceride Assay Kit (Bioassay Systems, USA; WAKO Chemicals Inc., Japan; Applygen, Beijing, China). Liver triglyceride was analyzed using Tissue triglyceride assay kit (Applygen, Beijing, China). Serum insulin levels were measured by the Ultra Sensitive Mouse Insulin ELISA Kit (Crystal Chem. Inc., USA). RNA was isolated using Tissue RNA kit (Omega Bio-Tek, GA). The first strand cDNA were obtained by TAKARA reverse transcription kit. Real-time quantitative PCR were performed on a CFX96™ Real-Time PCR Detection System (Bio-Rad) using SYBR Premix Ex Taq™ (TAKARA). Relative mRNA expression levels were normalized to actin levels. […]

Assay [8] deals with db/db mice. Briefly: Hepatic triglyceride, liver histology, serum ALT and ALP in high-fat diet fed db/db mice. The assay is classed as in vivo, mouse. Here is the method: Liver tissues fixed in 4% paraformaldehyde in example 5 were performed for H&E staining by standard procedures. Liver tissues fixed in 4% paraformaldehyde were embedded in optimum cutting temperature compound (OCT), and cryosectioned. Frozen liver sections were stained with 0.3% oil red O according to standard procedures.
The triglyceride levels in liver tissues from mice treated with compounds were analyzed using Tissue triglyceride assay kit (Applygen, Beijing, China).
Alkaline Phosphatase (ALP) is a marker of cholestasis. Cholestasis can be suspected when there is an elevation of ALP enzymes. In fact, greater than 90% of patients with bile stasis will have an elevated alkaline phosphatase. […] The aminotransferase is used to evaluate the presence of hepatitis and may be elevated in cholestasis or with common bile duct obstruction. In this example, 8-10 week age db/db mice were fed with high-fat diet and treated with 10 mg/kg of compounds once daily for 10 days as in Example 5. The activities of serum ALP and ALT were analyzed using ALP kit and ALT kit, respectively (Nanjing Jiancheng Engineering Institute, China).

The mark [9] stands for this setting: SRC1-2 peptide, read-out: EC50 (μM) of FXR binding by AlphaScreen assay recruit SRC1-2.
Setting [10] is: SRC2-3 peptide, read-out: EC50 (μM) of FXR binding by AlphaScreen assay recruit SRC2-3.

Turning to `Cc1cc(C(=O)OC2CCC3CCCCC3C2)ccc1N` (centres unmarked) [XD-31, decahydro-naphthalen-2-yl 4-amino-3-methylbenzoate], the EC50 (in [1] (setting [9]); in assay [1] (setting [10]); on full-length FXR) was below 1 µM throughout. In addition, the “Cell-based FXR transactivation Fold changes by 5 μM compound” value at full-length FXR is listed as −5. Moreover, the viability at 20 µM in [2] was 100 ± 1%; in [3], 63 ± 1%; in [4], 100 ± 1%; in assay [5], 74%; in [6], 100 ± 1%. The viability at 40 µM in assay [2] is 41 ± 1%; in assay [3], 59 ± 1%; in [4], 90 ± 1%; in assay [5], 42 ± 1%; in assay [6] it was 100 ± 1%. Besides, the “Serum Glucose (mg/dl)” value in the assay with db/db mice [7] is 326 ± 51^a mg/dl.

As to `Cc1cc(C(=O)OC2CCC3CCCCC3C2)ccc1F` (centres unmarked) [XD-34, decahydro-naphthalen-2-yl 4-fluoro-3-methylbenzoate], the EC50 was below 1 µM in [1] (setting [9]), below 1 µM in assay [1] (setting [10]) and 1 to 10 µM on full-length FXR. Moreover, the “Cell-based FXR transactivation Fold changes by 5 μM compound” value on full-length FXR is given as 2. The viability at 20 µM in [2] was 100 ± 6%; in assay [3] it was 98 ± 6%; in assay [4], 100 ± 6%; in [5] it was 98 ± 6%; in [6] it was 100 ± 6%. In addition, the viability at 40 µM in assay [2] was 100 ± 6%; in assay [3], 94 ± 6%; in [4] it was 88 ± 6%; in assay [5], 97 ± 6%; in [6], 99 ± 6%. Further, in the assay on db/db mice [8] (10 mg/kg once daily for 10 days, vehicle 129 ± 15), the “Serum ALP (U/L)” value is 91 ± 18^a U/L. For the same molecule, the “Serum ALT (U/L)” value in the assay on db/db mice [8] (10 mg/kg once daily for 10 days, vehicle 377 ± 48, Table 17) is on record as 73 ± 20^b U/L.

With `COc1cc(C(=O)OC2CC3CCC2(C)C3(C)C)ccc1F` (centres unmarked) [XD-3, 1,7,7-trimethyl-bicyclo[2.2.1]-heptan-2-yl 4-fluoro-3-methoxybenzoate], the EC50 (in [1] (setting [9]); in [1] (setting [10]); at full-length FXR) was 1 to 10 µM each time. Besides, at full-length FXR, the “Cell-based FXR transactivation Fold changes by 5 μM compound” value was 5. In addition, the viability at 20 µM amounted to 73 ± 5% in assay [2]; 80 ± 4% in assay [3]; 100 ± 3% in assay [4]; 100 ± 1% in assay [5]; 100 ± 4% in [6]. The viability at 40 µM worked out at 40 ± 1% in assay [2]; 41 ± 4% in assay [3]; 70 ± 3% in [4]; 66 ± 3% in assay [5]; 40% in assay [6]. In the assay on db/db mice [8] (10 mg/kg for 10 days, vehicle 148 ± 14), the “Hepatic triglyceride (mM/g)” value was 80 ± 19 ^a mM/g. Further, the “Serum ALT (U/L)” value in the assay with db/db mice [8] (10 mg/kg for 10 days, vehicle 377 ± 48, Table 15) is on record as 185 ± 29 ^a U/L.

In the case of `O=C(OC1CCCCCCC1)c1ccc([N+](=O)[O-])cc1` [XD-24, cyclooctyl 4-nitrobenzoate], at full-length FXR, the “Cell-based FXR transactivation Fold changes by 5 μM compound” value is listed as 1.2 and the EC50 was below 1 µM. Moreover, in the assay with db/db mice [7], the “Serum Glucose (mg/dl)” value was 307 ± 39^a mg/dl.
